The text below walks through data of US20060122194A1, “Tablet comprising efletirizine and pseudoephedrine” (UCB Farchim S.A., priority 2002, published 2006).

Structures are written as SMILES.

A short description of data set [1]: stability of the tablet / of efletirizine with pseudoephedrine. In kind it is physicochemical. The following applies: efletirizine and pseudoephedrine formulated together in the same segment.
The target in data set [2] is histamine H1-receptor (Homo sapiens, UniProt P35367). As to conditions: in vitro; cited from earlier work.
Chain of histamine H1-receptor (P35367 whole entry, species assumed): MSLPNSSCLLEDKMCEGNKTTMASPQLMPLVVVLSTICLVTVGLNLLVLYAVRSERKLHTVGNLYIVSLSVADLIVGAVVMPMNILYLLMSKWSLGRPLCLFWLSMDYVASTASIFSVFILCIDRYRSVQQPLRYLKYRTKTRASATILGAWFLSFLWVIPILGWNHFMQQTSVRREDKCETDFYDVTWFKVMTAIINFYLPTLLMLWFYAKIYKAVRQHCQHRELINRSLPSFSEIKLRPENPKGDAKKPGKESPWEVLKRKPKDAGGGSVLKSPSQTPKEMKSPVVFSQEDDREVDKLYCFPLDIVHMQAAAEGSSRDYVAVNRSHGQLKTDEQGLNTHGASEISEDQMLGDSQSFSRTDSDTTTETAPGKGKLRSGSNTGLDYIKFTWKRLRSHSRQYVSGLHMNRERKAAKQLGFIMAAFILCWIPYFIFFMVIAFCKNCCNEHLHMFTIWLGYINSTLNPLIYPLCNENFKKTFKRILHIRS

Regarding `O=C(O)COCCN1CCN(C(c2ccc(F)cc2)c2ccc(F)cc2)CC1` [Efletirizine, 2-{2-[4-[bis(4-fluorophenyl)methyl)-1-piperazinyl]ethoxy}acetic acid], the degradation of efletirizine result in data set [1] is given as “a degradation of efletirizine appeared”. Further, in data set [2], the “affinity and selectivity for H1-receptors” value is “high affinity and selectivity”.
